Earlier results in PubChem BioAssay AID1259409 (Chemical Carcinogenesis Research Information System (CCRIS), 2018).

Tested on: rodent chemically induced tumor inhibition, incidence and multiplicity
Test: CCRIS tumor inhibitor studies

For `COc1ccc2[nH]cc(CCNC(C)=O)c2c1`, the “tumour outcome (control, treated, inhibition, significance)” value (Carcinogen: 1,2-DIMETHYLHYDRAZINE [540-73-8], Dose [Inhibitor]: 20 UG/ML IN DRINKING WATER 14 HR/D AT NIGHT TIME FOR 6 MONTHS (STUDY DURATION: 6 MONTHS), Route [Inhibitor]: ORAL, Species: RAT, Strain/Sex: LIO/FEMALE, Target Tissue: Type of Lesion: ASCENDING COLON: TUMOR, Dose [Carcinogen]: 21 MG/KG BW 1X/WK FOR 15 WK (STUDY DURATION: 6 MONTHS), Promoter: NONE) is listed as 23/25 (92.0%), 15/23 (65.2%), 29%, p<0.01, the “tumour outcome (control, treated, inhibition, significance)” value (Carcinogen: 1,2-DIMETHYLHYDRAZINE [540-73-8], Dose [Inhibitor]: 20 UG/ML IN DRINKING WATER 14 HR/D AT NIGHT TIME FOR 6 MONTHS (STUDY DURATION: 6 MONTHS), Route [Inhibitor]: ORAL, Species: RAT, Strain/Sex: LIO/FEMALE, Target Tissue: Type of Lesion: DESCENDING COLON: TUMOR, Dose [Carcinogen]: 21 MG/KG BW 1X/WK FOR 15 WK (STUDY DURATION: 6 MONTHS), Promoter: NONE) is listed as 25/25 (100.0%), 23/23 (100.0%), 0%, not significant and the “tumour outcome (control, treated, inhibition, significance)” value (Carcinogen: 1,2-DIMETHYLHYDRAZINE [540-73-8], Dose [Inhibitor]: 20 UG/ML IN DRINKING WATER 14 HR/D AT NIGHT TIME FOR 6 MONTHS (STUDY DURATION: 6 MONTHS), Route [Inhibitor]: ORAL, Species: RAT, Strain/Sex: LIO/FEMALE, Target Tissue: Type of Lesion: DUODENUM: TUMOR, Dose [Carcinogen]: 21 MG/KG BW 1X/WK FOR 15 WK (STUDY DURATION: 6 MONTHS), Promoter: NONE) is listed as 8/25 (32.0%), 5/23 (21.7%), 32%, not significant. For the same compound, the “tumour outcome (control, treated, inhibition, significance)” value (Carcinogen: 1,2-DIMETHYLHYDRAZINE [540-73-8], Dose [Inhibitor]: 20 UG/ML IN DRINKING WATER 14 HR/D AT NIGHT TIME FOR 6 MONTHS (STUDY DURATION: 6 MONTHS), Route [Inhibitor]: ORAL, Species: RAT, Strain/Sex: LIO/FEMALE, Target Tissue: Type of Lesion: JEJUNUM AND ILIUM: TUMOR, Dose [Carcinogen]: 21 MG/KG BW 1X/WK FOR 15 WK (STUDY DURATION: 6 MONTHS), Promoter: NONE) was 4/25 (16.0%), 1/23 (4.3%), 73%, p<0.05, the “tumour outcome (control, treated, inhibition, significance)” value (Carcinogen: 1,2-DIMETHYLHYDRAZINE [540-73-8], Dose [Inhibitor]: 20 UG/ML IN DRINKING WATER 14 HR/D AT NIGHT TIME FOR 6 MONTHS (STUDY DURATION: 6 MONTHS), Route [Inhibitor]: ORAL, Species: RAT, Strain/Sex: LIO/FEMALE, Target Tissue: Type of Lesion: RECTUM: TUMOR, Dose [Carcinogen]: 21 MG/KG BW 1X/WK FOR 15 WK (STUDY DURATION: 6 MONTHS), Promoter: NONE) was 11/25 (44.0%), 11/23 (47.8%), -9%, not significant and the “tumour outcome (control, treated, inhibition, significance)” value (Carcinogen: 7, 12-DIMETHYLBENZ(A)ANTHRACENE [57-97-6], Dose [Inhibitor]: 20 UG/ML IN DRINKING WATER, 17 HR/D BEGINNING 5 D BEFORE FIRST CARCINOGEN DOSE FOR 13 WK (STUDY DURATION: 13 WK), Route [Inhibitor]: ORAL, Species: RAT, Strain/Sex: SPRAGUE-DAWLEY/FEMALE, Target Tissue: Type of Lesion: MAMMARY GLAND: TUMOR, Dose [Carcinogen]: 10 MG THREE TIMES BETWEEN POSTNATAL DAYS 45-59) was 23/24 (95.8%), 21/28 (75%), 21.5%, p<0.05. The “tumour outcome (control, treated, inhibition, significance)” value (Carcinogen: 7,12-DIMETHYLBENZ[A]ANTHRACENE [57-97-6], Dose [Inhibitor]: 10 MG/KG BW DAILY BETWEEN 45 AND 59 D OF AGE, Route [Inhibitor]: INTRAGASTRIC (GAVAGE) IN HYDROXYETHYLCELLULOSE SOLUTION, Species: RAT, Strain/Sex: SPRAGUE-DAWLEY/FEMALE, Target Tissue: Type of Lesion: MAMMARY: ADENOCARCINOMA, Dose [Carcinogen]: 75 MG/KG BW IN SESAME OIL AT 60 D OF AGE (STUDY DURATION: 1 YR)) was 75%, 43%, 43%, p=0.04 (at 6 mo), the “tumour outcome (control, treated, inhibition, significance)” value (Carcinogen: 7,12-DIMETHYLBENZ[A]ANTHRACENE [57-97-6], Dose [Inhibitor]: 10 MG/KG BW DAILY FOR 6 MO AFTER CARCINOGEN ADMINISTRATION, Route [Inhibitor]: INTRAGASTRIC (GAVAGE), Species: RAT, Strain/Sex: SPRAGUE-DAWLEY/FEMALE, Target Tissue: Type of Lesion: MAMMARY: ADENOCARCINOMA, Dose [Carcinogen]: 75 MG/KG BW AT 55 D OF AGE (STUDY DURATION: 1 YR)) was 75%, 35%, 53%, p=0.01 (at 6 mo) and the “tumour outcome (control, treated, inhibition, significance)” value (Carcinogen: 7,12-DIMETHYLBENZ[A]ANTHRACENE [57-97-6], Dose [Inhibitor]: 20 UG/ML IN DRINKING WATER 15 HR/D FOR 4 MONTHS BEGINNING AT THE TIME OF THE FIRST CARCINOGEN DOSE (STUDY DURATION: 6 MO, Route [Inhibitor]: ORAL, Species: MOUSE, Strain/Sex: CBA/FEMALE, Target Tissue: Type of Lesion: VAGINA AND CERVIX: TUMOR, Dose [Carcinogen]: 0.1% IN TRIETHYLENEGLYCOL IN A POLYURETHANE SPONGE 3 HR/D 2 D/WK FOR 2 MONTHS (STUDY DURATION: 6 MO), Promoter: NONE) was 7/20 (35%), 3/20 (15%), 57%, not significant. For the same compound, the “tumour outcome (control, treated, inhibition, significance)” value (Carcinogen: 7,12-DIMETHYLBENZ[A]ANTHRACENE, 57-97-6, Dose [Inhibitor]: 0, 20 UG/ML IN DRINKING WATER 17 HR/D 4 D/WK FOR 26 WK BEGINNING 45 D OF AGE (STUDY DURATION: 26 WK), Route [Inhibitor]: ORAL, Species: RAT, Strain/Sex: SD/FEMALE, Target Tissue: Type of Lesion: MAMMARY GLAND: TUMOR, Dose [Carcinogen]: 10 UG/ANIMAL IN CORN OIL INTRAGASTRICALLY ON 45, 50, 55 D OF AGE) was 100%, 42%, 58%, p<0.001, the “tumour outcome (control, treated, inhibition, significance)” value (Carcinogen: 7,12-DIMETHYLBENZ[A]ANTHRACENE, 57-97-6, Dose [Inhibitor]: 0, 20 UG/ML IN DRINKING WATER FOR 17 HR/D FOR THE DURATION OF STUDY (STUDY DURATION: 180 D), Route [Inhibitor]: ORAL, Species: RAT, Strain/Sex: SPRAGUE-DAWLEY/FEMALE, Target Tissue: Type of Lesion: MAMMARY GLAND: TUMOR, Dose [Carcinogen]: 20 MG/ANIMAL GAVAGE ONCE 10 D POST INHIBITOR TREATMENT (STUDY DURATION: 178 D), Promoter: NONE) was 16/24 (66.6%), 15/25 (60.0%), 10%, not significant and the “tumour outcome (control, treated, inhibition, significance)” value (Carcinogen: GAMMA RAYS: 7,12-DIMETHYLBENZ[A]ANTHRACENE [57-97-6], Dose [Inhibitor]: 0, 100 UG/ML IN DRINKING WATER FOR 28 WK (STUDY DURATION: 28 WK), Route [Inhibitor]: ORAL, Species: RAT, Strain/Sex: WISTAR: HAN/FEMALE, Target Tissue: Type of Lesion: MAMMARY GLAND: TUMOR, Dose [Carcinogen]: 96 MGY FORM CO-60 SOURCE FOR 2 WK (TOTAL ACCUMULATED DOSE 1.44 GY), THEN 3 DOSES OF 10 MG DMBA BY GAVAGE (STUDY DURATION, Promoter: NONE) was 48.3%, 50.0%, -3.5%, not significant.
